Experimental data as given in patent US20090130064A1, “DIFFERENTIATION OF STEM CELLS AND STABILIZATION OF PHENOTYPICAL PROPERTIES OF PRIMARY CELLS” (priority 2004, published 2009).

Key:
[1] = system: histone H4; assay: Acetylated histone H4 by immunocytochemistry in rat hepatocytes; format: cell-based; details: 1 μM TSA
Experimental: In all conditions, the hepatocytes were cultivated as a monolayer configuration, and samples were taken at days 1, 4 and 7 (D1, D4, D7) of the cultivation time.
Hepatocytes were fixed with cold ethanol, peremeabilised with Triton X-100 (Sigma) and blocked with non-fatty milk. Following incubation with appropriate concentrations of primary and secondary antibodies (FITC or TRITC labeled), samples were mounted with DAPI-containing Vectashield (Vector Laboratories). Detection was performed by fluorescence microscopy (Leica DMR/XA).

[2] = system: hMSC; assay: LDH-leakage cytotoxicity in hMSC; format: cell-based, human
Experimental: (§1) Low-density hMSC (CD45^−, Thy^+) were cultivated at 21.5 10^3 cells cm^2 on 1 mg/ml collagen gel type I matrix in the presence of liver-specific (LSP) cytokines, added either as a cocktail [basal medium supplemented with 10 ng/ml FGF-4 (fibroblast growth factor type 4), 20 ng/ml HGF (hepatic growth factor) (all from R&D), 1×ITS (insulin, transferrin, selenious acid) and 0.05 μM Dex (dexamethasone) (all from Sigma)] or sequentially [basal medium supplemented with 10 ng/ml FGF-4, following basal media supplemented with 20 ng/ml HGF (R&D) and finally basal medium supplemented with 20 ng/ml HGF, 1×ITS and 0.05 μM Dex]. Basal medium consisted of 60% (v/v) DMEM-LG/40% (v/v) MCDB-201 supplemented with 1 mg/ml LA-BSA, 100 IU/ml penicillin, 100 μg/ml streptomycin, 0.1 mM L-ascorbic acid, 4 μg/ml nicotinamide, 27.3 mg/l sodium-pyruvate and 1.623 mM glutamin (all from Sigma). The media were changed every three days.
The assay was done with an LDH-kit (Merck 1 14869.0001; Ecoline 1S) according to the manufacturer's recommendations.

[3] = system: hMSC; assay: Albumin ELISA, ALB secretion by hMSC; format: cell-based, human; details: for ALB secreted: sequential + 1 μM TSA from day 6
Experimental: as §1
ALB concentrations secreted into the media were analysed by a competitive enzyme-linked immunosorbent assay (ELISA) as described (Koebe et al. Int J Artif Organs 17: 95-106, 1994). The ALB levels were normalized with respect to the media used.

[4] = system: cyclin D1; assay: Western blotting of cyclin D1 in primary rat hepatocytes; format: cell-based; details: 50 μM; 72 hours
Excerpt: Male outbred Sprague-Dawley rats (200-300 g, Iffa Credo, Brussels, Belgium) were kept under controlled environmental conditions (12-hr light-dark cycle) and fed a standard diet (Animafabo A04, water ad libitum). Hepatocytes were isolated by a two-step collagenase perfusion as described (De Smet et al. In ‘Methods in Molecular Biology, Vol. 107: Cytochrome P450 Protocols’, Philips I R and Shephard E A, eds., pp 295-301, Humana Press, Totowa, 1998). Cell liability was >90% as determined by trypan blue exclusion. Cells (0.4×10^5 cells/cm^2) were plated in MEM/M199 (3:1), containing BSA (1 mg/ml), bovine insulin (10 μg/ml), L-glutamine (2 mM), FBS (10% v/v) and antibiotics (7.3 IU/ml benzyl penicillin, 50 μg/ml streptomycin sulphate, 50 μg/ml kanamycin monosulphstep and 10 μg/ml sodium ampicillin). Four hours after plating, serum-containing medium was removed and fresh serum-free medium was added to the cultures. Culture medium was refreshed daily. […]
Total cell extracts were prepared as described previously (Papeleu et al. J Hepatol 39: 374-382, 2003) and proteins (25 or 50 μg per lane) were separated electrophoretically by SDS-PAGE and electroblotted onto nitrocellulose membranes (Amersham Pharmacia Biotech, Buckinghamshire, UK). […] Proteins were detected using the ECL detection system (Amersham Pharmacia Biotech, Buckinghamshire, UK) according to the manufacturer's recommendations.

[5] = system: ERK1/2; assay: Western blotting of ERK1/2 phosphorylation in synchronized hepatocytes; format: cell-based, rat; details: 50 μM + EGF; initial 30 min
Experimental: (§2) Total cell extracts were prepared as described previously (Papeleu et al. J Hepatol 39: 374-382, 2003) and proteins (25 or 50 μg per lane) were separated electrophoretically by SDS-PAGE and electroblotted onto nitrocellulose membranes (Amersham Pharmacia Biotech, Buckinghamshire, UK). Equal sample loading was verified by immersion of the membranes in Ponceau S. Unspecific binding sites were blocked with 5% skim milk/Tris-buffered saline. Incubations with primary antibodies were performed overnight at 4° C. under gentle shaking. Proteins were detected using the ECL detection system (Amersham Pharmacia Biotech, Buckinghamshire, UK) according to the manufacturer's recommendations.
Early cell cycle events can be triggered by distinct signalling pathways, activated by EGF, namely: the MEK/ERK, the mTOR/p70S6k, and the Pak1 pathways. Eventually, they all converge on cyclin D1 and play thus an essential role in the regulation of this critical cell cycle protein. […] This was done by culturing the hepatocytes in the absence of EGF for 48 hours, consequently stimulating them with EGF and exposing them to 50 μM 4-Me2N-BAVAH for 0.5, 1 and 3 hours before harvesting. Shortly after stimulation of synchronized primary hepatocytes with EGF, a rapid and sustained phosphorylation of ERK1/2 was observed (FIG. 20A). […]

[6] = system: CYP 2B; assay: Western blot of CYP 2B in primary rat hepatocytes; format: cell-based; details: 50 μM
Excerpt: (§3) Male outbred Sprague-Dawley rats (200-300 g, Iffa Credo, Brussels, Belgium) were kept under controlled environmental conditions (12-hr light-dark cycle) and fed a standard diet (Animalabo A04, water ad libitum). Hepatocytes were isolated by a two-step collagenase perfusion as described (De Smet et al. In ‘Methods in Molecular Biology, Vol. 107: Cytochrome P450 Protocols’, Philips I R and Shephard E A, eds., pp 295-301, Humana Press, Totowa, 1998). Cell viability was >90% as determined by trypan blue exclusion. Cells (0.4×10^5 cells/cm^2) were plated in MEM/M199 (3:1), containing BSA (1 mg/ml), bovine insulin (10 μg/ml), L-glutamine (2 mM), FBS (10% v/v) and antibiotics (7.3 IU/ml benzyl penicillin, 50 μg/ml streptomycin sulphate, 50 μg/ml kanamycin monosulphate and 10 μg/ml sodium ampicillin). Four hours after plating, serum-containing medium was removed and fresh serum-free medium was added to the cultures. Culture medium was refreshed daily. EGF (50 ng/ml) was added 4 hours after plating. A 100 mM stock solution of 4-Me2N-BAVAH was prepared in ethanol.

[7] = system: caspase-3, Bid and Bax; assay: Western blotting of caspase-3 activation, Bid and Bax in primary rat hepatocytes; format: cell-based
Excerpt: as §3, with “(Animafabo” for “(Animalabo”, “liability” for “viability”, “monosulphstep” for “monosulphate”
as §2

## CC(C=CC(=O)NO)=CC(C)C(=O)c1ccc(N(C)C)cc1 (stereo not drawn) [TSA]
[1]
  acetylation of histone H4: hyperacetylation
[2]; 1 μM TSA
  cytotoxicity (LDH leakage): did not cause immediate cell death
[2]; 1 μM TSA, from day 13 (cocktail) and day 3 (sequential) on
  cell lethality (LDH leakage): significantly downregulated cell lethality
[2]; 5 and 25 μM TSA from day 0 until addition of HGF
  cytotoxicity (LDH leakage): immediate cell death
[3]; cocktail + 1 μM TSA, not significant
  ALB secretion: upregulation
[3]; conditioned medium, sequential + TSA, day 17
  ALB levels: 2.26 ± 0.092 µg/mL
[3]; conditioned medium, sequential, TSA day 0 until HGF, day 15
  difference in ALB secretion between cells with and without TSA: 2.28 fold
[3]; day 15
  ALB secreted: 2.019 ± 0.144 µg/mL
[3]; day 17
  ALB secreted: 3.456 ± 0.08 µg/mL

## CN(C)c1ccc(C(=O)NCCCCC(=O)NO)cc1 [4-Me2N-BAVAH, 5-(4-dimethylaminobenzoyl)-aminovaleric acid hydroxamide]
[4]
  cyclin D1 protein accumulation upon growth factor stimulation: completely failed to accumulate cyclin D1 protein
[5]
  ERK1/2 phosphorylation: increase in ERK1/2 phosphorylation
[6]
  expression of CYP 2B: Increased Expression
[7]; 50 μM
  expression of pro-apoptotic proteins Bid and Bax: decreased the expression
[7]; 24 and 48 hours of culture
  cleavage of pro-caspase-3 into active p18 fragments: significantly lower
[7]; after 72 hours of treatment
  cleavage of pro-caspase-3 into active p18 fragments: completely prevented
